Measurements published in patent US7629383B2, “Double esters” (Drug Discovery Laboratory AS, priority 2001, dated 2009).
Like-named read-outs stand apart in the source and are kept apart here.

What was measured:
[1] = Clinical testing of creams, indication skin cancer; assay type: in vivo, human; conditions: one person, skin cancer in the face
Protocol: A person with skin cancer in the face (one lesion above the nose) was treated with photodynamic therapy (5-ALA methyl ester, available from Photocure ASA, Oslo, Norway). The outcome of the treatment was very good. After about one year they observed a new lesion in the same area.

[2] = system: Staphylococcus aureus; experiment: Antibacterial effect on agar gels; assay type: cell-based; conditions: same amount (10 mg)
Protocol: The antibacterial effects of azelaic acid and the azelaic acid derivatives of Examples 7, 12 and 13 on Staphylococcus aureus were tested on agar gels.

[3] = cited from earlier work

Row | SMILES | inhibiting zones on agar gel [2] | also measured
1 | COC(=O)CCC(=O)CN [5-ALA methyl ester] | – | outcome of photodynamic therapy [1]: very good
2 | CCOC(=O)OC(C)OC(=O)CCCCCCCC(=O)OC(C)OC(=O)OCC (centres unmarked) [Example 7, bis-[1-[ethoxycarbonyloxy]-ethyl]nonanedioate] | large inhibiting zones | –
3 | CCCC(=O)OCOC(=O)CCCCCCCC(=O)OCOC(=O)CCC [Example 12, bis-(butanoyloxymethyl)nonanedioate] | large inhibiting zones | –
4 | CCCCCC(=O)OCOC(=O)CCCCCCCC(=O)OCOC(=O)CCCCC [Example 13, bis-(hexanoyloxymethyl) nonanedioate] | large inhibiting zones | –
5 | O=C(O)CCCCCCCC(=O)O [azelaic acid, nonanedioic acid] | no inhibiting effect | dose absorbed ([3]; administered orally): about 60%; dose absorbed ([3]; administered topically): about 3.6%; absorbed azelaic acid excreted into the urine ([3]; within 12 hours): 60%
